According to ChEMBL document CHEMBL5500378, “Discovery of 4-benzylpiperazinequinoline BChE inhibitor that suppresses neuroinflammation for the treatment of Alzheimer's disease” (Eur J Med Chem, 2024):
Active and inactive are the calls of the source. The rule behind the calls is not given here.

What was measured:
[1] = Ratio of AUC in brain to plasma of ICR mouse at 10 mg/kg, IG measured at 10 to 240 mins by LC-MS/MS analysis; assay type: ADME, organism-based; conditions: po, time 10-240 min
[2] = Neurotoxicity against rat PC12 cells by MTT assay; assay type: toxicity, cell-based; conditions: pc-12
[3] = Tmax in brain of ICR mouse at 10 mg/kg, IG measured at 10 to 240 mins by LC-MS/MS analysis; assay type: ADME, organism-based; conditions: po, time 10-240 min
[4] = Toxicity in ICR mouse model of Amyloid beta(1 to 42)-induced cognitive impairment assessed as body weight change at 10 mg/kg, IG for 12 days; assay type: organism-based; conditions: in vivo, po, 288 h, time 12 day
[5] = test system: PC-12; test: Neuroprotective activity against H2O2-induced neuronal damage in rat PC12 cells assessed as increase in cell viability pretreated for 1 hr followed by H2O2 addition measured after 24 hrs by MTT assay; assay type: functional, cell-based; conditions: dose <= 20.0 µM, time 25.0 hrs
[6] = test system: BV-2; test: Anti-inflammatory activity against mouse BV-2 cells assessed as decrease in LPS-induced IL-1beta level at 5 uM preincubated for 1 hr followed by LPS addition and incubated overnight by immunofluorescence based analysis; assay type: functional, cell-based
[7] = test system: Antioxidant response element; test: Induction of ARE in human HepG2-ARE-C8 cells incubated for 24 hrs by luciferase based assay; assay type: cell-based; conditions: HepG2-ARE-C8, 24 h
[8] = Toxicity in ICR mouse assessed as body weight change administered orally for 14 days consecutively; conditions: in vivo, po, 336 h, time 14 day
[9] = test system: Mus musculus; test: Anti-inflammatory activity in ICR mouse model assessed as shorter platform latency at 10 mg/kg, IG pretreated for 10 days followed by LPS treatment for 4 days by Moris water maze test; assay type: functional, organism-based; conditions: time 14.0 day
[10] = test system: Mus musculus; test: Anti-inflammatory activity in ICR mouse model assessed as reduction in serum IL-1beta level at 10 mg/kg, IG pretreated for 10 days followed by LPS treatment for 4 days by ELISA; assay type: functional, organism-based; conditions: time 14.0 day
[11] = AUC (0 to t) in Sprague-Dawley rat at 10 mg/kg, iv measured for 2880 mins by LC-MS/MS analysis; assay type: ADME, organism-based; conditions: in vivo
[12] = test system: Mus musculus; test: Neuroprotective activity in ICR mouse model of Amyloid beta(1 to 42)-induced cognitive impairment assessed as increase in AChE expression in brain at 10 mg/kg, IG for 12 days by ELISA; assay type: functional, organism-based; conditions: time 12.0 day
[13] = AUC (0 to t) in brain of ICR mouse at 10 mg/kg, IG measured at 10 to 240 mins by LC-MS/MS analysis; assay type: ADME, organism-based; conditions: po, time 10-240 min
[14] = AUC (0 to infinity) in Sprague-Dawley rat at 10 mg/kg, iv measured for 2880 mins by LC-MS/MS analysis; assay type: ADME, organism-based; conditions: in vivo
[15] = Cmax in Sprague-Dawley rat at 10 mg/kg, iv measured for 2880 mins by LC-MS/MS analysis; assay type: ADME, organism-based; conditions: in vivo
[16] = AUC (0 to t) in plasma of ICR mouse at 10 mg/kg, IG measured at 10 to 240 mins by LC-MS/MS analysis; assay type: ADME, organism-based; conditions: in vivo, po, time 10-240 min
[17] = test system: Mus musculus; test: Improvement of cognition in ICR mouse model of Amyloid beta(1 to 42)-induced cognitive impairment at 10 mg/kg, IG for 12 days by Moris water maze test; assay type: functional, organism-based; conditions: time 12.0 day
[18] = Cmax in plasma of ICR mouse at 10 mg/kg, IG measured at 10 to 240 mins by LC-MS/MS analysis; assay type: ADME, organism-based; conditions: in vivo, po, time 10-240 min
[19] = test system: L02; test: Cytotoxicity against human L02 cells by MTT assay; assay type: toxicity, cell-based
[20] = Tmax in Sprague-Dawley rat at 10 mg/kg, IG measured for 2880 mins by LC-MS/MS analysis; assay type: ADME, organism-based; conditions: in vivo, po
[21] = AUC (0 to infinity) in Sprague-Dawley rat at 10 mg/kg, IG measured for 2880 mins by LC-MS/MS analysis; assay type: ADME, organism-based; conditions: in vivo, po

SMILES: CCCc1ccc(C(=O)Nc2cnc3ccccc3c2N2CCN(Cc3ccccc3)CC2)cc1
- Kp [1]: 1.96
- Activity [2]: Not Active
- Tmax [3]: 22 min
- Activity [4]: Non-Toxic
- Activity [5]: Dose-Dependent Effect
- Activity [6]: Active
- EC50 [7]: 23.5 µM
- Activity [8]: Non-Toxic
- Activity [9]: Active
- Activity [10]: Active
- AUC(0-t) at 48 h [11]: 6070 ng·h/mL
- Activity [12]: Active
- AUC(0-t) [13]: 38300 ng·h/mL
- AUC(0-inf) [14]: 6070 ng·h/mL
- Cmax [15]: 7120 ng/mL
- AUCt [16]: 20051.76 ng·h/mL
- Activity [17]: Active
- Cmax [18]: 238.2 ng/mL
- Activity [19]: Non-Toxic
- Tmax [20]: 60 min
- AUC(0-inf) [21]: 5650 ng·h/mL
